# Test results: ChEMBL document CHEMBL1201862, “PubChem BioAssay data set” (2004)
#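 Grown in 96-well plates, cells were treated for 48 hours with each compound at five concentrations. Insufficient inhibition: endpoint recorded as highest concentration tested. GI50 marks 50% less growth.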 The source made the active and inactive calls. No stated cut-off is given here; in the data, active = GI50 up to about 1.1 µM and inactive = higher.
# Key:
# Assay in all cases: NCI anticancer screen, dose series, 48 h
# SNB-78 = test system: SNB-78
# LXFL 529 = test system: LXFL 529
# Malme-3M = test system: Malme-3M
# EKVX = test system: EKVX
# M19-MEL = test system: M19-MEL
# M14 = test system: M14
# K562 = test system: K562
# COLO 205 = test system: COLO 205
# U-251 = test system: U-251
# SK-MEL-2 = test system: SK-MEL-2
# KM12 = test system: KM12
# KM-20L2 = test system: KM-20L2
# SW-620 = test system: SW-620
# DLD-1 = test system: DLD-1
# OVCAR-8 = test system: OVCAR-8
# LOX IMVI = test system: LOX IMVI
SMILES,GI50 (SNB-78),GI50 (LXFL 529),GI50 (Malme-3M),GI50 (EKVX),GI50 (M19-MEL),GI50 (M14),GI50 (K562),GI50 (COLO 205),GI50 (U-251),GI50 (SK-MEL-2),GI50 (KM12),GI50 (KM-20L2),GI50 (SW-620),GI50 (DLD-1),GI50 (OVCAR-8),GI50 (LOX IMVI)
CC(=O)OC12c3ccccc3C1CCCC21OCCCO1 (stereo unspecified),> 100 µM (inactive),> 100 µM (inactive),> 100 µM (inactive),> 100 µM (inactive),> 100 µM (inactive),> 100 µM (inactive),> 100 µM (inactive),> 100 µM (inactive),> 100 µM (inactive),> 100 µM (inactive),> 100 µM (inactive),> 100 µM (inactive),> 100 µM (inactive),> 100 µM (inactive),> 100 µM (inactive),> 100 µM (inactive)
CN(/N=C/c1cccc2cccnc12)c1ccccc1,> 100 µM (inactive),89.3 µM (inactive),> 100 µM (inactive),> 100 µM (inactive),> 100 µM (inactive),> 100 µM (inactive),> 100 µM (inactive),> 100 µM (inactive),> 100 µM (inactive),41.1 µM (inactive),78.3 µM (inactive),> 100 µM (inactive),> 100 µM (inactive),> 100 µM (inactive),> 100 µM (inactive),> 100 µM (inactive)
NC12CC3CC(C1)CC(Cl)(C3)C2,> 100 µM (inactive),> 100 µM (inactive),> 100 µM (inactive),> 100 µM (inactive),> 100 µM (inactive),> 100 µM (inactive),> 100 µM (inactive),> 100 µM (inactive),> 100 µM (inactive),> 100 µM (inactive),> 100 µM (inactive),> 100 µM (inactive),> 100 µM (inactive),> 100 µM (inactive),> 100 µM (inactive),> 100 µM (inactive)
Cc1noc(/N=C2\C=C(Nc3onc(C)c3C)C(=O)c3ccccc32)c1C,> 100 µM (inactive),25.5 µM (inactive),> 100 µM (inactive),> 100 µM (inactive),3.98 µM (inactive),> 100 µM (inactive),8.81 µM (inactive),> 100 µM (inactive),46.1 µM (inactive),48.1 µM (inactive),> 100 µM (inactive),> 100 µM (inactive),> 100 µM (inactive),96.8 µM (inactive),16 µM (inactive),11 µM (inactive)
C=C1C(=O)C23C(O)CC4C5(C)CCCC4(C(O)OC5)C2C(OC(C)=O)CC1C3O (stereo unspecified),6.03 µM (inactive),2.61 µM (inactive),14.3 µM (inactive),14.6 µM (inactive),13.8 µM (inactive),3.41 µM (inactive),2.58 µM (inactive),5.16 µM (inactive),16.6 µM (inactive),13.8 µM (inactive),9.02 µM (inactive),8.95 µM (inactive),2.91 µM (inactive),5.06 µM (inactive),2.75 µM (inactive),13.5 µM (inactive)
CC(C)=CCCC(C)[C@H]1CC(O)C2(C)C3=CCC4C(C)(C)[C@@H](O)CC[C@]4(C)C3=CC[C@]12C (stereo partly specified),7.13 µM (inactive),1.95 µM (inactive),13.5 µM (inactive),26 µM (inactive),4.51 µM (inactive),3.27 µM (inactive),1.59 µM (inactive),4.93 µM (inactive),2.28 µM (inactive),23.3 µM (inactive),4.36 µM (inactive),6.58 µM (inactive),3.89 µM (inactive),3.87 µM (inactive),1.8 µM (inactive),0.0902 µM (active)
